Reference: article PMC6593233 (Frontiers in Pharmacology, 2019)
Entries after “also recorded” stand apart in the source; their conditions may differ. Read-outs that look alike come from different tables or passages of the source.

Legend:
[1] = tested on: isolated guinea pig hearts; assay: Isolated Langendorff-perfused guinea pig hearts: AERP, QTcB, heart rate
Method: AP14145 was supplied by Acesion Pharma. Dofetilide was purchased at Sigma-Aldrich (St. Louis, USA) for the Langendorff and Hello Bio (Bristol, UK) for the closed chest in vivo experiments. Ondansetron was purchased at Sigma-Aldrich (St. Louis, USA). For the Langendorff perfused heart experiments the compounds were dissolved in DMSO to make stock solutions and diluted to the final concentration in the Krebs-Henseleit buffer during the experiments. The final concentration of DMSO never exceeded 0.3% in the buffer. For the closed chest experiments, the compounds were first dissolved in PEG-400 and then diluted to a 50% saline and 50% PEG-400 solution. The Langendorff perfused heart experiments were performed using a total of 24 female Dunkin Hartley guinea pigs (350–450 g, Charles River, Saint-Germain-Nuelle, France). Guinea pigs were anesthetized with an i.p. injection of pentobarbital 200 mg/ml, lidocaine hydrochloride 20 mg/ml, (Glostrup Apotek, Denmark), dose 0.150 ml/100 g body weight. A tracheotomy was performed and the guinea pigs were ventilated with 60 strokes*5 ml/min using a rodent ventilator (7025 Rodent ventilator, Ugo Basile, Italy). The hearts were excised and cannulated in situ through a small puncture of the aorta and connected to the Langendorff retrograde perfusion setup (Hugo Sachs Elektronik, Harvard Apparatus GmbH, March, Germany). The hearts were retrogradely perfused at a constant perfusion pressure of 60 mmHg at 37°C, pH 7.4, Krebs-Henseleit buffer (in mM: […] The aortic perfusion pressure was determined with an ISOTEC transducer (Hugo Sachs Elektronik) and the coronary flow was measured with an ultrasonic flow meter (Transonic Systems Inc., USA). Both were connected to an amplifier (Hugo Sachs Elektronik). The electrical activity was measured using volume conducted ECGs and by placing epicardial monophasic action potential electrodes (MAPs) on the atria and ventricles. The hearts were immersed into a temperature-controlled bath containing pH 7.4 Krebs-Henseleit buffer. Perfusion pressure, coronary flow, ECG, and MAP analogue signals sampled at a frequency of 2k/s and converted by a 16/30 data acquisition system from PowerLab systems (ADInstruments, Oxford, UK) and monitored using LabChart 7 software (ADInstruments). A bipolar pacing electrode was placed on the right atrial appendage for epicardial pacing stimulation using square pulses of 2 ms durations at three times diastolic threshold at 300 beats per minute. During the entire experiment, the ECG was monitored and monophasic action potential electrodes were placed on each chamber of the heart. The hearts were then left to stabilize for 20 min at intrinsic heart rhythm. The right AERP was measured by 10 regular stimuli (S1) followed by a premature extra stimulus (S2) applied with 1-ms increments. The AERP was defined as the longest S1–S2 interval failing to elicit an action potential. […] After a period of stabilization, every Langendorff experiment consisted of four 20-min episodes ( Figure 1 ). […] During the entire experiment, the AERP was measured every 5 min and the ECG was continuously monitored.

[2] = tested on: guinea pigs; assay: In vivo closed chest atrially paced guinea pig model: AERP, QTcB, heart rate
Method: AP14145 was supplied by Acesion Pharma. […] For the Langendorff perfused heart experiments the compounds were dissolved in DMSO to make stock solutions and diluted to the final concentration in the Krebs-Henseleit buffer during the experiments. The final concentration of DMSO never exceeded 0.3% in the buffer. For the closed chest experiments, the compounds were first dissolved in PEG-400 and then diluted to a 50% saline and 50% PEG-400 solution. A total of 18 female guinea pigs (Dunkin Hartley HsdPoc : GH, Charles River) weighing 350-450 g were anesthetized with 5% isoflurane/oxygen in a sedation box. The guinea pigs were placed under artificial ventilation through a cannula placed in the trachea and anesthesia was reduced to 2.5% isoflurane/oxygen throughout the experiment. The temperature of the guinea pigs was monitored with a rectal thermometer and kept stable during the experiment using a heating lamp. Needle ECG electrodes were placed in each limb for ECG recordings (ADInstruments, UK). An electrophysiological catheter with eight electrodes (EPR-802) (Millar Inc., US) was placed in the right atrium via the right jugular vein. The two electrodes proximal to the tip of the catheter ([[…] et al., 2006]; [[…] et al., 2012]) were used to pace the atrium and six electrodes ([Waldo et al., 1996]; [[…] et al., 2003]; [Roukoz and […] et al., 2009]; [Grunnet et al., 2012]; [Zimetbaum, 2012]) were used to measure the electrical activity in the atrium. The AERP was measured as in the Langendorff experiments. Between the AERP recordings, the heart remained unpaced. An intravenous catheter (inside diameter 0.5, outside diameter 0.8 mm, Natsume Seisakusho, Japan) was placed in the right jugular vein alongside the electrophysiology catheter for drug infusion. […] First a period of 20 min baseline recording was conducted with AERP measurements every 5 min ( Figure 1 ). […] The AERP was measured every 5 min during baseline and every 2 min during and after infusion.

[3] = target: T1, hKCa2.2 (Homo sapiens, UniProt Q9H2S1); design: method as in Simó-Vicens et al., 2017a; details: hKCa2.2, automated patch clamp; ref Simó-Vicens et al., 2017a; cited from earlier work
[4] = target: T2, hKCa2.3 (Homo sapiens, UniProt Q9UGI6); details: hKCa2.3, automated patch clamp, cited from earlier work
[5] = target: T1, hKCa2.2; design: method as in Simó-Vicens et al., 2017b; details: hKCa2.2, manual patch clamp; ref Simó-Vicens et al., 2017b; cited from earlier work
[6] = target: T2, hKCa2.3; design: method as in Simó-Vicens et al., 2017b; details: hKCa2.3, manual patch clamp; ref Simó-Vicens et al., 2017b; cited from earlier work
[7] = target: T3, hKv11.1 (Homo sapiens, UniProt Q12809); design: method as in Diness et al., 2017; details: hKv11.1, automated patch clamp; ref Diness et al., 2017; cited from earlier work
T3 construct: expressed in transfected cells

[8] = target: T1, hKCa2.2; assay: Manual whole-cell patch clamp, IKCa in HEK293 cells transiently transfected with hKCa2.2; type: cell-based
Method: These stock solutions were stored at −20°C and aliquots were solubilized at the desired concentration on the day of the experiment.
(§1) The KCa2.2 manual patch-clamp experiments and KCa2.2/KCa2.3 QPatch experiments were conducted using symmetrical K^+ solutions. The extracellular solution contained (in mM) 0.1 CaCl2, 3 MgCl2, 154 KCl, 10 HEPES, and 10 glucose (pH = 7.4 and 285–295 mOsm). The intracellular solution contained (in mM) 8.106 CaCl2 (final free Ca^2+ concentration of 400 nM), 1.167 MgCl2, 10 EGTA, 108 KCl, 10 HEPES, 31.25/10 KOH/EGTA, and 15 KOH (pH = 7.2).
The cells were cultured in Dulbecco’s modified Eagle’s medium (DMEM1965, Thermo Fisher, USA) supplemented with 26.2 mM NaHCO3, 25 mM HEPES, 10 ml L^-1 Glutamax (Gibco, USA), 10% fetal bovine serum (Biowest, France), and 100 U ml^-1 of penicillin/streptomycin (Sigma, Germany); 1 to 2 days after the transfection, patch clamp experiments were conducted. […]
Manual patch clamp recordings were made using a HEKA EPC9 amplifier and the PatchMaster software (HEKA Elektronik, Germany) at room temperature using the whole cell configuration. Fluorescence was used to detect successfully transfected cells. […]
(§2) For IKCa and IKr, the mean of the last three data points was used for further analysis. […] Individual IC50 values were calculated for each experiment and then used to obtain the final mean ± S.E.M.

[9] = target: T1, hKCa2.2; assay: Automated patch clamp (QPatch), IKCa in HEK293 cells stably expressing hKCa2.2; type: cell-based; details: hKCa2.2, automated patch clamp, present study, n = 8
Method: as §1
(§3) Bicuculline methiodide was used as a positive control for KCa2 specific current at the beginning and the end of the experiment.
(§4) The cells were cultured in Dulbecco’s modified Eagle’s medium (DMEM1965, Thermo Fisher, USA) supplemented with 26.2 mM NaHCO3, 25 mM HEPES, 10 ml L^-1 Glutamax (Gibco, USA), 10% fetal bovine serum (Biowest, France), 100 U ml^-1 of penicillin/streptomycin (Sigma, Germany), and 100 µg/ml Geneticin (Gibco, UK) […]
as §2

[10] = target: T2, hKCa2.3; assay: Automated patch clamp (QPatch), IKCa in HEK293 cells stably expressing hKCa2.3; type: cell-based
Method: as §1, §3, §4, §2

[11] = target: T3, hKv11.1; assay: Automated patch clamp (QPatch), IKr in CHO-K1 cells stably expressing Kv11.1; type: cell-based; details: Kv11.1 current
Method: For the Kv11.1 experiments conducted on the automated QPatch machine, the extracellular solution contained (in mM) 145 NaCl, 4 KCl, 2 CaCl2, 1 MgCl2, 10 HEPES, and 10 glucose (pH = 7.4 and 305 mOsm adjusted with sucrose). The intracellular solution contained (in mM) 120 KCl, 31.25/10 KOH/EGTA, 5.4 CaCl2, 1.75 MgCl2, 4 mM Na2ATP, and 10 HEPES (pH = 7.2 and 285–296 mOsm adjusted with sucrose). Recordings were made before and after application of drug.
The cells were cultured in DMEM F12 (Sigma, Germany), 10% fetal bovine serum (Biowest, France) and 100 U ml^-1 of penicillin/streptomycin (Sigma, Germany), 100 µg/ml Geneticin (Gibco, UK), 100 µg/ml hygromycin (Sigma-Aldrich), and 2 mM glutamine (Gibco, UK).
On the day of experiment, when cells reached about 70–90% confluency, they were detached with Detachin (Genlantis, USA) and resuspended in serum free medium (C5467 SAFC, Switzerland) containing 25 mM HEPES, 0.04 mg/ml soy bean trypsin inhibitor (T6522 Sigma-Aldrich), and 100 U/ml penicillin/streptomycin and were kept in suspension for QPatch experiments.
Automated patch-clamp whole-cell recordings were performed using a QPatch 16 HT system and disposable single-hole QPlates (Sophion, Denmark). […]

T3 sequence (Q12809 whole entry): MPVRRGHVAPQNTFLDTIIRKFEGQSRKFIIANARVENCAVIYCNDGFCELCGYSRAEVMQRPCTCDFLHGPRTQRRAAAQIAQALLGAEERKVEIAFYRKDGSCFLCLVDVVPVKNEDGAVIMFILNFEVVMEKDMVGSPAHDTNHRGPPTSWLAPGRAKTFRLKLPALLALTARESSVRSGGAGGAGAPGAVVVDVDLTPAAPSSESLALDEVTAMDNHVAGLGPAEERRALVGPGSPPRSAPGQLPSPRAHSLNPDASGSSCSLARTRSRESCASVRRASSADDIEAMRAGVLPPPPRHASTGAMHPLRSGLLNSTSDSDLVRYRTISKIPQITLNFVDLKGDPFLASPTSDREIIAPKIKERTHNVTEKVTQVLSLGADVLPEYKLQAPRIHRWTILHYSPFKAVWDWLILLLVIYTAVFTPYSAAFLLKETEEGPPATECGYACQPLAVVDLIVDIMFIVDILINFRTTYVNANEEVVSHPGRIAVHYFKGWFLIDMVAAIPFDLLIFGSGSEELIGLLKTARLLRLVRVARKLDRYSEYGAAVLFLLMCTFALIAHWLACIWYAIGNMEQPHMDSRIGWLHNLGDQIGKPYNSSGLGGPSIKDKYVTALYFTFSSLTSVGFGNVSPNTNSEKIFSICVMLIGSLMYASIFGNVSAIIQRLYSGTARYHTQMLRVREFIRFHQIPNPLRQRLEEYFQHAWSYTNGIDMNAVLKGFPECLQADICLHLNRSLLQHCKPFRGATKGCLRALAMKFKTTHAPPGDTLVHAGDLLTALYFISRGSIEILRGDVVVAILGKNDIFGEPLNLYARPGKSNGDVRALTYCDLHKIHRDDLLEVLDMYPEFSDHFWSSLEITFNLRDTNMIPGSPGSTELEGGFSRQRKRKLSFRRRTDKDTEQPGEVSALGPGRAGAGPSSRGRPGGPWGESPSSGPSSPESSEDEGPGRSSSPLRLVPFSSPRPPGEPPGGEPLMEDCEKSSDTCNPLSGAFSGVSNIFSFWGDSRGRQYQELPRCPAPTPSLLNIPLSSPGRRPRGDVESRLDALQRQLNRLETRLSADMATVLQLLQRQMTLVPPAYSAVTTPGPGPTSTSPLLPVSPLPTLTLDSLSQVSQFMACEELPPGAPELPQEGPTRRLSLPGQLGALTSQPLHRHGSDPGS

Q: With `CN(CCOc1ccc(NS(C)(=O)=O)cc1)CCc1ccc(NS(C)(=O)=O)cc1` [Dofetilide] as the compound, how does the “HR, % of baseline values” ([1]; 10 nM, TMC 94 ± 4%) read?
A: 83 ± 3%

Q: And the QTcB ([1]; 10 nM, TMC 271 ± 5 ms)?
A: 306 ± 9 ms

Q: What about the AERP ([1]; 30 nM, TMC 64 ± 6 ms) of the same compound?
A: 80 ± 4 ms

Q: And the “HR, % of baseline values” ([1]; 30 nM, TMC 91 ± 4%)?
A: 80 ± 3%

Q: What about the QTcB ([1]; 30 nM, TMC 269 ± 6 ms) of the same compound?
A: 313 ± 9 ms

Q: And the “Effect on AERP” value ([2]; 0.01 mg/kg infused over 20 min)?
A: No effect on AERP

Q: What about the “HR, % of the baseline average” value ([2]; 0.01 mg/kg, minimum, 5 min after end of infusion, TMC 93 ± 2%) of the same compound?
A: 82 ± 3%

Q: And the QTcB ([2]; after 5 min of infusion, 0.01 mg/kg over 20 min, TMC 280 ± 9 ms)?
A: 319 ± 11 ms

Q: And the IC50 [3]?
A: 60 µM

Q: What about the IC50 ([4]; ref Simó-Vicens et al., 2017a) of the same compound?
A: 90 µM

Q: With `CC(=O)Nc1cccc2[nH]c(N[C@H](C)c3cccc(C(F)(F)F)c3)nc12` [AP14145] as the compound, how does the AERP ([1]; 10 µM, end of wash-in, TMC 61 ± 5 ms) read?
A: 77 ± 2 ms

Q: And the “AERP (maximum)” value ([1]; 30 µM, TMC 64 ± 6 ms)?
A: 93 ± 2 ms

Q: What about the “AERP (maximum during infusion)” value ([2]; 13.3 mg/kg infused over 20 min, TMC 75 ± 3 ms) of the same compound?
A: 113 ± 6 ms

Q: And the AERP ([2]; after 6 min of i.v. infusion (4 mg/kg given), TMC 72 ± 2 ms)?
A: 97 ± 6 ms

Q: What about the IC50 [5] of the same compound?
A: 1.1 µM

Q: And the IC50 [6]?
A: 1.1 µM

Q: And the IC50 ([4]; ref Diness et al., 2017)?
A: 1.3 µM

Q: What about the IC50 [7] of the same compound?
A: 71.8 µM

Q: What does the source list for `Cc1nccn1CC1CCc2c(c3ccccc3n2C)C1=O` (stereo not drawn) [Ondansetron]?
A: Effect on IKCa ([8]; 1 µM, hKCa2.2-expressing HEK cells, 400 nM intracellular calcium, n = 5): failed to inhibit IKCa; also recorded: did not inhibit IKCa; IC50 ([8]; hKCa2.2, manual patch clamp, present study): > 1 µM; IC50 [9]: > 30 µM; IC50 ([10]; hKCa2.3, automated patch clamp, present study, n = 8): > 30 µM; Effect on IKCa ([10]; up to 30 µM, hKCa2.3 current): did not inhibit IKCa; Concentration from which IKr is blocked [11]: ≥ 3000 nM; QTcB ([1]; 3 µM, TMC 269 ± 6 ms): 294 ± 5 ms; Effect on AERP compared to TMC ([1]; concentrations up to 3µM): did not affect AERP significantly; Effect on HR compared to TMC ([1]; concentrations up to 3µM): did not significantly affect HR
